Literature values, collected in patent publication US7119205B2, “Thienopyridones as AMPK activators for the treatment of diabetes and obesity” (Abbott Laboratories, priority 2003, dated 2006).

Test system: ob/ob and db/db mice
Details: 8 day administration

NC(=O)c1ncn([C@@H]2O[C@H](CO)[C@@H](O)[C@H]2O)c1N [AICAR]
reduction of blood glucose: 35%
